{
  "source": "paper PMC8387043",
  "about": "“Host Poly(A) Polymerases PAPD5 and PAPD7 Provide Two Layers of Protection That Ensure the Integrity and Stability of Hepatitis B Virus RNA” (Journal of Virology, 2021)",
  "key": {"HBV": {"tested_on": "HBV", "assay": "Antiviral activity in HBV-infected HepG2-NTCP WT and KO clones", "type": "cell-based, hepatitis B virus", "conditions": "for EC50: Hepatitis B virus, read-out: HBV infection EC50"}, "HCMV": {"tested_on": "HCMV", "assay": "Antiviral selectivity panel, CPE in MRC-5 cells", "type": "cell-based, human cytomegalovirus", "conditions": "Human betaherpesvirus 5, MRC5; MRC-5, CPE"}, "HIV": {"tested_on": "HIV", "assay": "Antiviral selectivity panel, CPE in CEM-SS cells", "type": "cell-based", "conditions": "Human immunodeficiency virus 1"}, "WNV": {"tested_on": "WNV", "assay": "Antiviral selectivity panel, CPE in Vero76 cells", "type": "cell-based", "conditions": "West Nile virus, Vero 76", "method": "(§1) HepG2.2.15 (30,000 cells/well) were plated in 96-well collagen-treated plates and incubated at 37°C. Compounds were half-log serially diluted and added in duplicate to 96-well microtiter plates. The plates were incubated for a total duration of 6 days, after which the culture medium was removed for the HBsAg and HBeAg CLIA assays (AutoBio Diagnostics Co., China) performed according to the manufacturer’s instructions. Secreted HBV DNA was extracted (Realtime Ready cell lysis kit; Roche, Mannheim, Germany) and quantified in a qPCR assay (LightCycler 480 SYBR green I master mix; Roche) with the 5′-[…]-3′ (sense) and 5′-[…]-3′ (antisense) primers using the PCR conditions of denaturing at 95°C for 5 min followed by 40 cycles of amplification at 95°C for 15 s and 60°C for 30 s. Antiviral selectivity studies against a panel of different DNA and RNA viruses were performed at ImQuest BioSicences (Frederick, MD, USA). Briefly, test compounds were evaluated using 6 doses, including the highest concentration of 30 μM and five serial half-logarithmic dilutions in triplicate for the antiviral assays."}, "[1]": {"tested_on": "panel of 10 different RNA and DNA viruses", "assay": "Antiviral selectivity panel (summary statement)", "type": "cell-based", "conditions": "read-out: EC50 against a panel of 10 different RNA and DNA viruses", "method": "as §1"}, "HBV RNA poly(A) tails": {"tested_on": "HBV RNA poly(A) tails", "assay": "HBV sRNA poly(A) tail NGS in HepG2-NTCP WT and KO clones"}, "HSV-1/HSV-2": {"tested_on": "HSV-1/HSV-2", "assay": "Antiviral selectivity panel, CPE in Vero cells", "type": "cell-based, herpes simplex virus", "method": "as §1"}},
  "note": "Read-outs that look alike come from different tables or passages of the source.",
  "data": [
    {"smiles": "COCCCOc1cc2c(nc1OC)-c1cc(=O)c(C(=O)O)cn1[C@H](C(C)C)C2", "note": "[AB-452]", "values": [
      {"measurement": "EC50", "setting": "HBV; P5_KO (T3-4)", "result": "37.7 ± 8.3", "unit": "nM"},
      {"measurement": "EC50", "setting": "HBV; P5_KO (T3-15)", "result": "39.3 ± 3.2", "unit": "nM"},
      {"measurement": "EC50", "setting": "HBV; P7_KO (T2-8)", "result": "3.8 ± 1.5", "unit": "nM"},
      {"measurement": "EC50", "setting": "HBV; T222, P7_KO (T2-22)", "result": "3.2 ± 1.9", "unit": "nM"},
      {"measurement": "EC50", "setting": "HBV; WT (parent) HepG2-NTCP", "result": "2.7 ± 1.8", "unit": "nM"},
      {"measurement": "HBV infection FC vs WT", "setting": "HBV; P5_KO (T3-4)", "result": 14.0},
      {"measurement": "HBV infection FC vs WT", "setting": "HBV; P5_KO (T3-15)", "result": 14.6},
      {"measurement": "HBV infection FC vs WT", "setting": "HBV; P7_KO (T2-8)", "result": 1.4},
      {"measurement": "HBV infection FC vs WT", "setting": "HBV; P7_KO (T2-22)", "result": 1.2},
      {"measurement": "HBV infection FC vs WT", "setting": "HBV; WT (parent)", "result": 1},
      {"measurement": "EC50", "setting": "HCMV", "result": "> 30000", "unit": "nM"},
      {"measurement": "EC50", "setting": "HIV", "result": "> 30000", "unit": "nM"},
      {"measurement": "EC50", "setting": "WNV", "result": "> 30000", "unit": "nM"},
      {"measurement": "EC50", "setting": "[1]", "result": "> 30000", "unit": "nM"},
      {"measurement": "poly(A) tail length after treatment", "setting": "HBV RNA poly(A) tails; WT and P7_KO cells, untreated >136 bp", "result": "~60", "unit": "bp"},
      {"measurement": "guanylation frequency of sRNA after treatment", "setting": "HBV RNA poly(A) tails; WT and P7_KO cells, untreated ∼50%", "result": "~10", "unit": "%"},
      {"measurement": "guanosine incorporation", "setting": "HBV RNA poly(A) tails; Z14_KO and PAPD5/7_DKO cells, with and without AB-452", "result": "~10", "unit": "%"},
      {"measurement": "EC50", "setting": "HSV-1/HSV-2", "result": "> 30000", "unit": "nM"}
    ]}
  ]
}
